Results from US20220257571A1, “INHIBITOR OF MAP KINASE INTERACTING SERINE/THREONINE KINASE 1 (MNK1) AND MAP KINASE INTERACTING SERINE/THREONINE KINASE 2 (MNK2), CANCER THERAPY AND THERAPEUTIC COMBINATIONS” (FUNPACIÓ HOSPITAL UNIVERSITARI VALL D'HEBRON - INSTITUT DE …, priority 2019, published 2022).
pEC50, pIC50: −log10 of the molar value.

Legend:
[1] = system: IMR90 cells, non-transformed fibroblasts; test: cell growth (crystal violet) and cell death (PI/Hoechst) in IMR90 cells; format: cell-based
Procedure: (§1) Commercially available MDA-MB-231, MDA-MB-468, MCF7 and A375M, IMR90 (IMR-90 (ATCC® CCL-186TH) cells were grown at 37° C. and 5% CO2 in DMEM medium (Dulbecco's Modified Eagle Medium, 4.5 g/I glucose; 30 mg/I L-Glutamine (Gibco)) supplemented with 10% foetal bovine serum, 100 U/ml penicillin and 100 μg/ml streptomycin.
Knock-out mice of the EB1 target kinases MNK1 and MNK2 are viable (Ueda et al 2004; PMID: 15254222). […] Cell growth was measured by crystal violet assay. Cell death was determined by Propidium Iodid (PI)/Hoechst staining and the ratio of dead cell (PI positive) among all analyzed cells (Hoechst) was determined. Cis-platin treatment was included as positive control. […] Minimal side effects for patients are therefore predictable.

[2] = system: 22Rv1 cells; test: apoptosis assay of 22Rv1 cells (Propidium Iodide staining); format: cell-based; settings: 22Rv1, 72 h, dual treatment EB1 and Enzalutamide
Procedure: Dual inhibition of AR and eIF4E phosphorylation induces cell death via apoptosis. […] With this aim, 22Rv1 (A) cells were treated either with vehicle (DMSO), enzalutamide, EB1 or a combination of both with the indicated concentrations for 72 h. Whole cell lysates were then prepared and subjected to western blot analysis with the indicated antibodies. […] Increase in CI-PARP levels indicated apoptotic induction under the combinatory treatment. (B) Apoptosis assays of 22Rv1 cell line after treatment with the indicated concentrations of Enzalutamide, EB1 and the combination of both for 72 h, quantified by analysis of fragmented/condensed chromatin after Propidium Iodide staining. […] Representative Propidium Iodide and Hoechst staining images of 22Rv1 cell line were obtained, although data are not shown. Data are mean of two technical replicates from one experiment ±SEM ***p<0.001 two-tailed Student's test

[3] = system: MNK1/2; test: radiometric kinase assay (33PanQinase Activity Assay), IC50; format: biochemical
Procedure: (§2) The kinase activity of the compound was measured by a radiometric kinase assay (^33PanQinase® Activity Assay) carried out by Proqinase (www.proqinase.com).
(§3) The assays were carried out in 96-well FlashPlates™ by PerkinElmer (Boston, Mass., USA) with a reaction volume of 50 μl. The reaction cocktail was pipetted in 4 steps: (1) 20 μl buffer, (2) 5 μl ATP solution (in H2O), (3) 5 μl compound (in 10% DMSO) and (4) 20 μl enzyme/substrate mixture. Lastly, the cocktail contained 70 mM HEPES-NaOH pH 7.5, 3 mM MgCl2, 3 mM MnCl2, 3 μM sodium orthovanadate, 1.2 mM DTT, 50 μg/ml PEG20000, ATP (1 μM for MNK1 and 0.3 μM for MNK2), [γ-^33P]-ATP (approx. […] per well), protein kinase (variable amounts depending on the batch) and substrate (2 μg/50 μl).
(§4) Reaction cocktails were incubated at 30° C. for 60 minutes. The reaction was stopped with 50 μl of 2% H3PO4 (v/v), the plates were sucked, they were washed twice with 200 μl of 0.9% NaCl (w/v) and the incorporation of ^33Pi (MicroBeta microplate scintillation counter, Wallac) was determined. All assays were performed with a Beckman Coulter/SAGIAN™ system.
(§5) The residual activity (in %) for each well of a particular plate was calculated using the following formula (wherein high control is the kinase activity in absence of an inhibitor and low control is the radioactivity value of the substrate in absence of a kinase).

[4] = molecular target: T1, MNK1/2; test: as above; format: biochemical; settings: MNK1/2, isoform not stated; read-out: enzymatic IC50
T1 construct: rows headed: enzymatic IC50
Procedure: as §2, §3, §4, §5

[5] = system: eIF4E phosphorylation in melanoma cells (A375M); test: titration of eIF4E phosphorylation in A375M cells; format: cell-based
Procedure: as §1
(§6) Inhibition of eIF4E phosphorylation was quantified by Western Blot. Cells were seeded in 60 mm plates (700,000 cells for 24 h, 500,000 cells for 48 h and 300,000 cells for 72 h).
(§7) After 24 h, the treatments were added. The stocks of compounds were prepared in […] at a concentration 200 times more concentrated than the treatment concentration. Thus, in all cases, the final concentration of DMSO in the medium was 0.5%.
After incubation, proteins were removed and Western Blot was performed. On ice, the plates were washed with PBS and the cells were lysed with 60 μl lysis buffer (50 mM Tris, 200 mM NaCl, 5 mM EDTA, 0.1% Triton 100×, pH 7.5 supplemented with protease inhibitors (EDTA-free Protease Inhibitor Cocktail Set III, Calbiochem) and phosphatase inhibitors (Phosphatase Inhibitor Cocktail Set II, Calbiochem)). The samples were centrifuged at 15,000 g and the supernatant was quantified by the Bradford method. […] Selectivity against MNK was analysed with ERK, p-ERK, MNK1, p-MNK1, 4EBP1 and p-4EBP1 antibodies. […]

[6] = system: MCF7 cells; test: cell growth of MCF7 cells with tamoxifen (crystal violet); format: cell-based; settings: combination with tamoxifen
Procedure: as §1
Cell growth in the presence of EB1, tamoxifen or the combination of both inhibitors was measured by crystal violet. Data were normalized to the vehicle control.

[7] = system: 320-kinase panel; test: selectivity on a 320-kinase panel; format: biochemical; settings: 1 μM
Procedure: as §2, §3
Reaction cocktails were incubated at 30° C. for 60 minutes. The reaction was stopped with 50 μl of 2% H3PO4 (v/v), the plates were sucked, they were washed twice with 200 μl of 0.9% NaCl (w/v) and the incorporation of ^33Pi (MicroBeta microplate scintillation counter, Wallac) was determined. […]
as §5
To study selectivity, residual activity was measured at 1 μM from a 320-kinase panel.

[8] = molecular target: T2, MNK2 (Homo sapiens, UniProt Q9HBH9); test: radiometric kinase assay (33PanQinase Activity Assay), MNK2; format: biochemical; settings: after treatment with 10 μM compound; ATP 0.3 μM; read-out: residual activity of MNK2
T2 construct: purchased Proqinase
T2 sequence (Q9HBH9 whole entry): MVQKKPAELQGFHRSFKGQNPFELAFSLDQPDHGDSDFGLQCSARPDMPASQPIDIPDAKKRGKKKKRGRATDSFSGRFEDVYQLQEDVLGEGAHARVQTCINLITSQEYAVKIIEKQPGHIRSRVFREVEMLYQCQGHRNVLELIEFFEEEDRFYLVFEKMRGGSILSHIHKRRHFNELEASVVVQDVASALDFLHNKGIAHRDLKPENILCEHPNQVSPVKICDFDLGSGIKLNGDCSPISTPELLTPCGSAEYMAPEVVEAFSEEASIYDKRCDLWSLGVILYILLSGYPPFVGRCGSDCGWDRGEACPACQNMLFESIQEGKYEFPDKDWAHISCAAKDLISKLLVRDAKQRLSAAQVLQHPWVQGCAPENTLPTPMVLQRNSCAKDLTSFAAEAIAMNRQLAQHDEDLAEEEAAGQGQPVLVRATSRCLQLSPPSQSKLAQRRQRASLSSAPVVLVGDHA
Procedure: The assays were carried out in 96-well FlashPlates™ by PerkinElmer (Boston, Mass., USA) with a reaction volume of 50 μl. The reaction cocktail was pipetted in 4 steps: (1) 20 μl buffer, (2) 5 μl ATP solution (in H2O), (3) 5 μl compound (in 10% DMSO) and (4) 20 μl enzyme/substrate mixture. […]
To screen compounds, the residual activity of both kinases was analysed after treatment with 10 μM of the compounds.

[9] = system: eIF4E phosphorylation in MCF10 cells; test: inhibition of eIF4E phosphorylation by Western Blot in MCF10 cells; format: cell-based; settings: Homo sapiens; immortalised non-tumour breast cells (MCF10)
Procedure: MCF10A cells (also commercially available) were grown in DMEM/F-12 medium (Dulbecco's Modified Eagle Medium: 3.125 g/L D-Glucosa, 365 mg/L L-Glutamine, Nutrient Mixture F-12 (Gibco)) supplemented with 10% FBS, 100 U/ml penicillin, 100 μg/ml streptomycin, 1% L-Glutamine (Cambrex), 10 ng/ml choleric toxin (Sigma-Aldrich), 0.005 mg/ml insulin (Sigma), 100 ng/ml hydrocortisone (Sigma) and 20 ng/ml EGF (Epidermal growth factor, Sigma).
as §6, §7
After incubation, proteins were removed and Western Blot was performed. […] The samples were centrifuged at 15,000 g and the supernatant was quantified by the Bradford method. […] Selectivity against MNK was analysed with ERK, p-ERK, MNK1, p-MNK1, 4EBP1 and p-4EBP1 antibodies.

In the case of `Nc1n[nH]c2nc(-c3ccccc3)cc(-c3ccccc3)c12` [EB1, 4,6-diphenyl-1H-pyrazolo[3,4-b]pyridin-3-amine], the cell death ([1]; IMR90, PI/Hoechst staining) was “does not induce cell death”, the cell growth arrest ([1]; IMR90, crystal violet) was “does not cause significant cell growth arrest” and the apoptotic cell population [2] was “Remarcable increase in apoptotic cell population”. For the same compound, the “mode of MNK1/2 inhibition” value [3] was “non-ATP competitive”, the pIC50 [4] was 6.15 and the “activity as MNK inhibitor (eIF4E phosphorylation)” value [5] was “active”. The “sensitivity of MCF7 cells to tamoxifen” value [6] was “increased sensitivity to tamoxifen”, the “number of other kinases affected in an equivalent manner” value [7] was 16 and the remaining activity at 10 µM [8] was 52%. For the same compound, the pEC50 [9] was 6.15.
